From patent publication US20060216718A1, “Method and system for estimating gene expression data” (priority 2005, published 2006)

System: gene expression
Test: Differential gene expression by microarray, linear multi-factor model (FIG. 3)
Assay type: in vivo, rats
Conditions: in both males and females, relative to baseline treatment combination (males who received corn oil)
Method: Returning to FIG. 1, the gene expression data 14 thus acquired and, typically, background-corrected, transformed, normalized, and/or otherwise conditioned, is analyzed at step 16 without aggregating or summarizing the readings of the multiple probes from each gene, and with simultaneous assessment of the effects of all the experimental factors. For example, a linear, multi-factor model is used in one embodiment to achieve this. The linear, multi-factor model explicitly accounts for differences in expression between genes, between probes from the same gene, and between the effects of experimental factors (which in one embodiment are gender of the experimental animals, and chemical substance they have been exposed to). The effects of the experimental factors on gene expression are estimated simultaneously, rather than one-at-a-time. In this way, the analysis corresponds to the experimental design, where the factor levels are varied together and simultaneously, rather than one at a time, this enabling the assessment of possible, non-linear interactions between experimental factors. In one example, the linear model is of the form Yijnk=γn+τkn+σln+(τσ)kln+επjn+εijkln […]

With `Clc1cc2c(cc1Cl)Oc1cc(Cl)c(Cl)cc1O2` [TCDD] the “differential gene expression (fold increase) of the genes denoted by reference number 40” value was “about 40 fold”.
